What was measured:
L1210 [1] = test: Antineoplastic activity against mouse L1210 cells allografted in BDF1 mouse assessed as survival time at 80 mg/kg, qd administered for 6 days (reference value: 8.4 days); assay type: functional
Mus musculus [2] = test: Toxicity in BDF1 mouse allografted with mouse L1210 cells assessed as change in body weight at 80 mg/kg, qd administered for 6 days measured during compound treatment (reference value: 14.8%); assay type: organism-based; set-up: dose 80 mg/kg; settings: in vivo, 144 h
Sarcoma-180 [3] = test: Antineoplastic activity against mouse sarcoma 180 cells allografted in CD-1 mouse assessed as 50 day survivors at 60 mg/kg, qd administered for 6 days relative to control; assay type: functional
Mus musculus [4] = test: Toxicity in CD-1 mouse allografted with mouse sarcoma 180 cells assessed as change in body weight at 60 mg/kg, qd administered for 6 days measured during compound treatment (reference value: 30.2%); assay type: organism-based; set-up: dose 60 mg/kg; settings: in vivo, 144 h
Sarcoma-180 [5] = test: Antineoplastic activity against mouse sarcoma 180 cells allografted in CD-1 mouse assessed as increase in survival rate at 60 mg/kg, qd administered for 6 days relative to control; assay type: functional
Sarcoma-180 [6] = test: Antineoplastic activity against mouse sarcoma 180 cells allografted in CD-1 mouse assessed as increase in survival rate at 40 mg/kg, qd administered for 6 days relative to control; assay type: functional
Sarcoma-180 [7] = test: Antineoplastic activity against mouse sarcoma 180 cells allografted in CD-1 mouse assessed as 50 day survivors at 40 mg/kg, qd administered for 6 days relative to control; assay type: functional
Mus musculus [8] = test: Toxicity in CD-1 mouse allografted with mouse sarcoma 180 cells assessed as change in body weight at 40 mg/kg, qd administered for 6 days measured during compound treatment (reference value: 30.2%); assay type: organism-based; set-up: dose 40 mg/kg; settings: in vivo, 144 h
Sarcoma-180 [9] = test: Antineoplastic activity against mouse sarcoma 180 cells allografted in CD-1 mouse assessed as increase in survival rate at 80 mg/kg, qd administered for 6 days relative to control; assay type: functional
Sarcoma-180 [10] = test: Antineoplastic activity against mouse sarcoma 180 cells allografted in CD-1 mouse assessed as 50 day survivors at 80 mg/kg, qd administered for 6 days relative to control; assay type: functional
Mus musculus [11] = test: Toxicity in CD-1 mouse allografted with mouse sarcoma 180 cells assessed as change in body weight at 80 mg/kg, qd administered for 6 days measured during compound treatment (reference value: 30.2%); assay type: organism-based; set-up: dose 80 mg/kg; settings: in vivo, 144 h
L1210 [12] = test: Antineoplastic activity against mouse L1210 cells allografted in BDF1 mouse assessed as survival time at 100 mg/kg, qd administered for 6 days (reference value: 8.4 days); assay type: functional
Mus musculus [13] = test: Toxicity in BDF1 mouse allografted with mouse L1210 cells assessed as change in body weight at 100 mg/kg, qd administered for 6 days measured during compound treatment (reference value: 14.8%); assay type: organism-based; set-up: dose 100 mg/kg; settings: in vivo, 144 h
Mus musculus [14] = test: Toxicity in BDF1 mouse allografted with mouse L1210 cells assessed as change in body weight at 60 mg/kg, qd administered for 6 days measured during compound treatment (reference value: 14.8%); assay type: organism-based; set-up: dose 60 mg/kg; settings: in vivo, 144 h
L1210 [15] = test: Antineoplastic activity against mouse L1210 cells allografted in BDF1 mouse assessed as survival time at 60 mg/kg, qd administered for 6 days (reference value: 8.4 days); assay type: functional
Sarcoma-180 [16] = test: Antineoplastic activity against mouse sarcoma 180 cells allografted in CD-1 mouse assessed as 50 day survivors at 20 mg/kg, qd administered for 6 days relative to control; assay type: functional
Mus musculus [17] = test: Toxicity in CD-1 mouse allografted with mouse sarcoma 180 cells assessed as change in body weight at 20 mg/kg, qd administered for 6 days measured during compound treatment (reference value: 30.2%); assay type: organism-based; set-up: dose 20 mg/kg; settings: in vivo, 144 h
Sarcoma-180 [18] = test: Antineoplastic activity against mouse sarcoma 180 cells allografted in CD-1 mouse assessed as increase in survival rate at 20 mg/kg, qd administered for 6 days relative to control; assay type: functional

Compound `Cc1ccc(S(=O)(=O)N/N=C/c2cccc[n+]2[O-])cc1` has a Survival (L1210 [1]) of 14.3 days, an Activity (Mus musculus [2]) of -7.4% and a survival at 60 mg/kg (Sarcoma-180 [3]) of 0%. The Activity (Mus musculus [4]) was -8% and the T/C (Sarcoma-180 [5]) was 307%.

`O=S(=O)(N/N=C/c1cccc[n+]1[O-])c1ccccc1` was tested, and the Survival (L1210 [1]) was 10.6 days, the Activity (Mus musculus [2]) was -8% and the T/C (Sarcoma-180 [6]) was 339%. The survival at 40 mg/kg (Sarcoma-180 [7]) was 20% and the Activity (Mus musculus [8]) was -5.2%.

For `COc1ccc(S(=O)(=O)N/N=C/c2cccc[n+]2[O-])cc1`, the Survival (L1210 [1]) was 19.7 days, the Activity (Mus musculus [2]) was -4.9% and the T/C (Sarcoma-180 [9]) was 356%. It also gave a survival at 80 mg/kg (Sarcoma-180 [10]) of 40% and an Activity (Mus musculus [11]) of -11.6%.

In the case of `Cc1ccccc1S(=O)(=O)N/N=C/c1cccc[n+]1[O-]`, the Survival (L1210 [12]) was 19.9 days, the survival at 60 mg/kg (Sarcoma-180 [3]) was 0% and the Activity (Mus musculus [4]) was -1.9%. For the same compound, the Activity (Mus musculus [13]) was -11.1% and the T/C (Sarcoma-180 [5]) was 285%.

`O=[N+]([O-])c1cccc(S(=O)(=O)N/N=C/c2cccc[n+]2[O-])c1` was tested, and the Survival (L1210 [1]) was 12.4 days, the Activity (Mus musculus [2]) was -5.4% and the survival at 60 mg/kg (Sarcoma-180 [3]) was 60%. It also gave an Activity (Mus musculus [4]) of -7.5% and a T/C (Sarcoma-180 [5]) of 390%.

Work on `O=[N+]([O-])c1ccc(S(=O)(=O)N/N=C/c2cccc[n+]2[O-])cc1` yielded a T/C (Sarcoma-180 [9]) of 345%, a survival at 80 mg/kg (Sarcoma-180 [10]) of 10% and an Activity (Mus musculus [11]) of -7.1%.

`Nc1cccc(S(=O)(=O)N/N=C/c2cccc[n+]2[O-])c1` was tested, and the T/C (Sarcoma-180 [9]) was 364%, the survival at 80 mg/kg (Sarcoma-180 [10]) was 0% and the Activity (Mus musculus [11]) was -10.3%.

`Nc1ccc(S(=O)(=O)N/N=C/c2cccc[n+]2[O-])cc1` was tested, and the survival at 60 mg/kg (Sarcoma-180 [3]) was 0%, the Activity (Mus musculus [4]) was 2.4% and the T/C (Sarcoma-180 [5]) was 276%.

`O=S(=O)(N/N=C/c1cccc[n+]1[O-])c1ccc(Cl)cc1` was tested, and the T/C (Sarcoma-180 [6]) was 260%, the survival at 40 mg/kg (Sarcoma-180 [7]) was 0% and the Activity (Mus musculus [8]) was -0.6%.

With `O=S(=O)(N/N=C/c1cccc[n+]1[O-])c1ccc(Br)cc1` the T/C (Sarcoma-180 [6]) was 240%, the survival at 40 mg/kg (Sarcoma-180 [7]) was 0% and the Activity (Mus musculus [8]) was -3.5%.

With `O=S(=O)(N/N=C/c1cccc[n+]1[O-])c1ccc(F)cc1` the survival at 60 mg/kg (Sarcoma-180 [3]) was 20%, the Activity (Mus musculus [14]) was 1.6% and the Activity (Mus musculus [4]) was -5.7%. It also gave a Survival (L1210 [15]) of 11.8 days and a T/C (Sarcoma-180 [5]) of 337%.

`O=S(=O)(N/N=C/c1cc(Cl)cc[n+]1[O-])c1ccccc1` gave a survival at 20 mg/kg (Sarcoma-180 [16]) of 0%, an Activity (Mus musculus [17]) of 10.8% and a T/C (Sarcoma-180 [18]) of 156%.

`O=[N+]([O-])c1cc[n+]([O-])c(/C=N/NS(=O)(=O)c2ccccc2)c1` was tested, and the survival at 60 mg/kg (Sarcoma-180 [3]) was 0%, the Activity (Mus musculus [4]) was -5.4% and the T/C (Sarcoma-180 [5]) was 293%.

With `O=S(=O)(N/N=C/c1cc(N2CCOCC2)cc[n+]1[O-])c1ccccc1` the survival at 20 mg/kg (Sarcoma-180 [16]) was 0%, the Activity (Mus musculus [17]) was 1.4% and the T/C (Sarcoma-180 [18]) was 242%.

`C/C(=N\NS(=O)(=O)c1ccccc1)c1cccc[n+]1[O-]` gave a survival at 60 mg/kg (Sarcoma-180 [3]) of 0%, an Activity (Mus musculus [4]) of 23.5% and a T/C (Sarcoma-180 [5]) of 130%.

`O=C(NNS(=O)(=O)c1ccccc1)c1cccc[n+]1[O-]` gave a T/C (Sarcoma-180 [6]) of 107%, a survival at 40 mg/kg (Sarcoma-180 [7]) of 0% and an Activity (Mus musculus [8]) of 20.7%.

With `O=S(=O)(N/N=C/c1cccc[n+]1[O-])c1cccnc1` the survival at 60 mg/kg (Sarcoma-180 [3]) was 0%, the Activity (Mus musculus [4]) was 0% and the T/C (Sarcoma-180 [5]) was 276%.

In the case of `O=S(=O)(N/N=C/c1cccc[n+]1[O-])c1cccc2ccccc12`, the survival at 60 mg/kg (Sarcoma-180 [3]) was 0%, the Activity (Mus musculus [4]) was -3.4% and the T/C (Sarcoma-180 [5]) was 261%.

For `O=S(=O)(N/N=C/c1cccc[n+]1[O-])c1ccc2ccccc2c1`, the survival at 60 mg/kg (Sarcoma-180 [3]) was 0%, the Activity (Mus musculus [4]) was -1.2% and the T/C (Sarcoma-180 [5]) was 308%.

Work on `O=S(=O)(N/N=C/c1cccc[n+]1[O-])c1ccc2c(c1)Cc1ccccc1-2` yielded a T/C (Sarcoma-180 [6]) of 276%, a survival at 40 mg/kg (Sarcoma-180 [7]) of 0% and an Activity (Mus musculus [8]) of -4.7%.

From ChEMBL document CHEMBL3243951, “Relationship between structure and antineoplastic activity of arylsulfonylhydrazones of 2-formylprydine N-oxide” (J Med Chem, 1978)
